This is an account of results in patent US20260265238A1, “COMPOUNDS AND PHARMACEUTICAL COMPOSITIONS THAT DEGRADE SWI/SNF-RELATED MATRIX-ASSOCIATED ACTIN-DEPENDENT REGULATOR OF CHROMATIN SUBFAMILY A” (Plexium, Inc., priority 2023, published 2026).

Experiment [1] concerns the target T1, SMARCA2-HiBiT HeLa cells (protein which is expressed from the SMARCA2 gene) (Homo sapiens, UniProt P51531).
T1 construct: protein which is expressed from the SMARCA2 and SMARCA4 genes; host or cells: HeLa (SMARCA2-HiBiT engineered line)
Briefly: SMARCA2 degradation assay (HiBiT-fusion HeLa cell line, 24 h, luminescence). The format is cell-based. The gist of the method: (§1)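 SMARCA2- or SMARCA4-HiBiT HeLa cells seeded overnight at 37° C, then given compound as a 10-point dilution (typically 10 μM to 300 pM) for 24 h at 37° C. Protein level read by HiBiT lytic detection luminescence; DC50 from dose-response curves; degradation also scored at 1 μM.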

Experiment [2] deals with T2, SMARCA4-HiBiT HeLa cells (protein which is expressed from the SMARCA4 gene) (Homo sapiens, UniProt P51532).
T2 construct: protein which is expressed from the SMARCA2 and SMARCA4 genes; host or cells: HeLa (SMARCA4-HiBiT engineered line)
T2 sequence (P51532 whole entry): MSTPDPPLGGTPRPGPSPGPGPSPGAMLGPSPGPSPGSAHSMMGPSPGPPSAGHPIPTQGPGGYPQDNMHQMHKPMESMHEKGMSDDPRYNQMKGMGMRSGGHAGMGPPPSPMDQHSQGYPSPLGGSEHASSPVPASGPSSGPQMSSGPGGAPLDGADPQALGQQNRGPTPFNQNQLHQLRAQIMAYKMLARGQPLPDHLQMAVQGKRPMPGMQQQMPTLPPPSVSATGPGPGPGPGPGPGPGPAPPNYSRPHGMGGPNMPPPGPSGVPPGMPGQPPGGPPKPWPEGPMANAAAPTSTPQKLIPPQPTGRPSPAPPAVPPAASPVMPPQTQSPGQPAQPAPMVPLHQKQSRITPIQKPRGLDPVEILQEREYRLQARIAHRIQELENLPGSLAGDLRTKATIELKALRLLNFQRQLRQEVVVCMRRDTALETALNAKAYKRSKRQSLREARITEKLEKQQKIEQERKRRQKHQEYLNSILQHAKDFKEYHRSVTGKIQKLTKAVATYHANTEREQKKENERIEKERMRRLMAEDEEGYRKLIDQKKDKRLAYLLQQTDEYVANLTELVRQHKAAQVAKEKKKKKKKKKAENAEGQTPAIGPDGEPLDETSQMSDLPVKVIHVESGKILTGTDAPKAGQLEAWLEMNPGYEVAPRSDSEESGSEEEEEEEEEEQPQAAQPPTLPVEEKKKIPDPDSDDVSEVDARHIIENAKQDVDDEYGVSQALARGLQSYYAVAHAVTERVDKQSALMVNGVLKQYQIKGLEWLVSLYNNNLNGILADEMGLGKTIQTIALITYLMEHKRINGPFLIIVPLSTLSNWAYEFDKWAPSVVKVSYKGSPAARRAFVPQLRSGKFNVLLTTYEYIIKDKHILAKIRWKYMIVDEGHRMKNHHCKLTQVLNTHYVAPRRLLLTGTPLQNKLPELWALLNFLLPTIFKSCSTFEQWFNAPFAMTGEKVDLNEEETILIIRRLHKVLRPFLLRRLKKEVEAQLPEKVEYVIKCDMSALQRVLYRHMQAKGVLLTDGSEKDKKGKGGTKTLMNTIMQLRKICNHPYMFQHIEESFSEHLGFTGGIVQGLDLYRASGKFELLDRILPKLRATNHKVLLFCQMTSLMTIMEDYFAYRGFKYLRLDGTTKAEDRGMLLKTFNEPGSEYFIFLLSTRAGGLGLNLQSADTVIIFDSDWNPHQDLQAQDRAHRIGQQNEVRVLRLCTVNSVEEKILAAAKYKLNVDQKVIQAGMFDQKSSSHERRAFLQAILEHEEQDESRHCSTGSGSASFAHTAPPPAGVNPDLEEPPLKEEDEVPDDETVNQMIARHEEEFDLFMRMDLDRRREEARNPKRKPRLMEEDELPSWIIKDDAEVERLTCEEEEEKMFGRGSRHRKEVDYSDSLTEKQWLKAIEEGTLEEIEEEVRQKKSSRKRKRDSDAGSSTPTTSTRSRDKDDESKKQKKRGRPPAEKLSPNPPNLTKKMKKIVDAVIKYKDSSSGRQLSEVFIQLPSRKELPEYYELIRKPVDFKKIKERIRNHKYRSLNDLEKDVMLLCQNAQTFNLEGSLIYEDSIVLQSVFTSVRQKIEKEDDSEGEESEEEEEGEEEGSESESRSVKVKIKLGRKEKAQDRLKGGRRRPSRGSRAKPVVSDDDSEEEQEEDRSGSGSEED
Briefly: SMARCA4 degradation assay (HiBiT-fusion HeLa cell line, 24 h, luminescence). The format is cell-based. A digest of the protocol:
as §1
On the technique in general: The HiBiT peptide binds its large partner to form an active luciferase.

Structures are written as SMILES.

As a reminder, the DC50 is the concentration giving 50% degradation. For orientation: inhibition means the change of the read-out against control, counted positive when it falls. A high value points to a response far below the control.

T1 sequence (P51531 whole entry): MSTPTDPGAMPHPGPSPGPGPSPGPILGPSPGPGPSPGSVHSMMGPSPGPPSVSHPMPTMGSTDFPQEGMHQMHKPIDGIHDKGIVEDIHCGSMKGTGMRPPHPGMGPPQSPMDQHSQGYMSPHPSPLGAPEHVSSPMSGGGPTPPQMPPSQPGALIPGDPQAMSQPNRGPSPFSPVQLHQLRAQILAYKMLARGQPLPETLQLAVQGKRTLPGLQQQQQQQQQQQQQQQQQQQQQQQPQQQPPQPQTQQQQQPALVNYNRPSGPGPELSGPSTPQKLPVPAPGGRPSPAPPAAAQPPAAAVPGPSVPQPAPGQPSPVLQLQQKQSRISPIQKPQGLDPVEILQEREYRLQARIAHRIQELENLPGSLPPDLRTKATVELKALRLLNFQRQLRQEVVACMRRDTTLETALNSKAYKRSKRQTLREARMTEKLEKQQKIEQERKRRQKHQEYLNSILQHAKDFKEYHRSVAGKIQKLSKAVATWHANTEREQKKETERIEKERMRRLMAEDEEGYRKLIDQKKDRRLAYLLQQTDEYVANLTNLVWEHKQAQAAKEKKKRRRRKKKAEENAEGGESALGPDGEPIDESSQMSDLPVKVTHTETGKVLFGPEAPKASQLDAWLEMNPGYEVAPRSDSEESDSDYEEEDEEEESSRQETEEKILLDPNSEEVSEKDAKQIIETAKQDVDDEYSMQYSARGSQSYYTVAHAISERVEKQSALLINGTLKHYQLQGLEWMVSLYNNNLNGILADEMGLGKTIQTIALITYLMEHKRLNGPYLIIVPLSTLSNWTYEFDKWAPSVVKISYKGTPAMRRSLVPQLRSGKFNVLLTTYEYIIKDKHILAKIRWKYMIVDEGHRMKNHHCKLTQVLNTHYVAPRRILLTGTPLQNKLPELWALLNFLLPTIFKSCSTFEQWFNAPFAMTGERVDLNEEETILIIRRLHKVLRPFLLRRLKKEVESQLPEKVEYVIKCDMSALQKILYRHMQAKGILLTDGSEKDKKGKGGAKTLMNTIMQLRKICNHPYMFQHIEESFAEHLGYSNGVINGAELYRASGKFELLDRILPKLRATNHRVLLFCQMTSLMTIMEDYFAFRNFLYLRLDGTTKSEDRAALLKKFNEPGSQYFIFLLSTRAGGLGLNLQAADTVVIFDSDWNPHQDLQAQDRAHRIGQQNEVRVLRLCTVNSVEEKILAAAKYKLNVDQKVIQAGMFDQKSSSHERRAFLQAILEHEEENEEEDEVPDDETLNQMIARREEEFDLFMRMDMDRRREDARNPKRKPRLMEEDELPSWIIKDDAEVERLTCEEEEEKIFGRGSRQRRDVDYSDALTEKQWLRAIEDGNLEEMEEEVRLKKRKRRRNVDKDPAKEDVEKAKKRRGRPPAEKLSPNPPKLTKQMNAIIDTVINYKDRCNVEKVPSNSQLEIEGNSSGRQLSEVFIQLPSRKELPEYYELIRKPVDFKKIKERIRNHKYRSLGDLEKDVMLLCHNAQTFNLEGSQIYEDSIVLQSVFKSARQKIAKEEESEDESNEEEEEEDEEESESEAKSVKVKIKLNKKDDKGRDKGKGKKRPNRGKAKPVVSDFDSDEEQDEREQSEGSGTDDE

As to `C[C@@H]1CN(c2ccnc(C#CCNC(=O)c3cc4ncccn4n3)n2)CCN1c1cc(-c2ccccc2O)nnc1N` [Compound P-49, (R)-N-(3-(4-(4-(3-amino-6-(2-hydroxyphenyl)pyridazin-4-yl)-3-methylpiperazin-1-yl)pyrimidin-2-yl)prop-2-yn-1-yl)pyrazolo[1,5-a]pyrimidine-2-carboxamide], in experiment [1], the DC50 is greater than 5000 nM and the “SMARCA2 % Degradation @ 1 μM” value is “+ (+=<30%)”. In experiment [2], the DC50 lay in the range of 500 to 5000 nM and the inhibition at 1 µM is less than 30%.
The matching figures for `C[C@@H]1CN(c2cc(-c3ccccc3O)nnc2N)CCN1c1ccnc(C#CCNC(=O)c2cc3ncccn3n2)n1` [Compound P-50, (R)-N-(3-(4-(4-(3-amino-6-(2-hydroxyphenyl)pyridazin-4-yl)-2-methylpiperazin-1-yl)pyrimidin-2-yl)prop-2-yn-1-yl)pyrazolo[1,5-a]pyrimidine-2-carboxamide]: less than 50 nM, “++ (++=30-70%)”, less than 50 nM and 30 to 70%.
The like results for `CCC1CN(c2ccnc(C#CCNC(=O)c3cc4ncccn4n3)n2)CCN1c1cc(-c2ccccc2O)nnc1N` (centres unmarked) [Compound P-51, N-(3-(4-(4-(3-amino-6-(2-hydroxyphenyl)pyridazin-4-yl)-3-ethylpiperazin-1-yl)pyrimidin-2-yl)prop-2-yn-1-yl)pyrazolo[1,5-a]pyrimidine-2-carboxamide] were, in that order, 50 to 500 nM, “++ (++=30-70%)”, 50 to 500 nM and 30 to 70%.
Consider `Nc1nnc(-c2ccccc2O)cc1N1CCN(c2ccnc(C#CCNC(=O)c3cc4ccc(F)cc4o3)n2)CC1` [Compound P-52, N-(3-(4-(4-(3-amino-6-(2-hydroxyphenyl)pyridazin-4-yl)piperazin-1-yl)pyrimidin-2-yl)prop-2-yn-1-yl)-6-fluorobenzofuran-2-carboxamide], for which, in experiment [1], the DC50 lay within 50 to 500 nM and the “SMARCA2 % Degradation @ 1 μM” value is reported as “++ (++=30-70%)”. In experiment [2], the DC50 was 50 to 500 nM and the inhibition at 1 µM fell in the range of 30 to 70%.
As to `Nc1nnc(-c2ccccc2O)cc1N1CCN(c2ccnc(C#CCNC(=O)c3noc4ccccc34)n2)CC1` [Compound P-54, N-(3-(4-(4-(3-amino-6-(2-hydroxyphenyl)pyridazin-4-yl)piperazin-1-yl)pyrimidin-2-yl)prop-2-yn-1-yl)benzo[d]isoxazole-3-carboxamide], in experiment [1], the DC50 lay in the range of 50 to 500 nM and the “SMARCA2 % Degradation @ 1 μM” value was “++ (++=30-70%)”. Moreover, in experiment [2], the DC50 lay within 50 to 500 nM and the inhibition at 1 µM was 30 to 70%.
Regarding `Nc1nnc(-c2ccccc2O)cc1N1CCN(c2ccnc(C#CCNC(=O)c3coc4ccccc34)n2)CC1` [Compound P-55, N-(3-(4-(4-(3-amino-6-(2-hydroxyphenyl)pyridazin-4-yl)piperazin-1-yl)pyrimidin-2-yl)prop-2-yn-1-yl)benzofuran-3-carboxamide], in experiment [1], the DC50 was in the range of 50 to 500 nM and the “SMARCA2 % Degradation @ 1 μM” value is on record as “++ (++=30-70%)”. In experiment [2], this molecule displayed a DC50 of 50 to 500 nM and an inhibition at 1 µM of 30 to 70%.
Turning to `Nc1nnc(-c2ccccc2O)cc1N1CCN(c2ccnc(C#CCNC(=O)c3ccncc3)n2)CC1` [Compound P-56, N-(3-(4-(4-(3-amino-6-(2-hydroxyphenyl)pyridazin-4-yl)piperazin-1-yl)pyrimidin-2-yl)prop-2-yn-1-yl)isonicotinamide], in experiment [1], the DC50 lay within 50 to 500 nM and the “SMARCA2 % Degradation @ 1 μM” value is listed as “++ (++=30-70%)”. In experiment [2], the DC50 lay within 50 to 500 nM and the inhibition at 1 µM lay in the range of 30 to 70%.
As for `Nc1nnc(-c2ccccc2O)cc1N1CCN(c2ccnc(C#CCNC(=O)c3cc4n(n3)CCCO4)n2)CC1` [Compound P-57, N-(3-(4-(4-(3-amino-6-(2-hydroxyphenyl)pyridazin-4-yl)piperazin-1-y1)pyrimidin-2-yl)prop-2-yn-1-yl)-6,7-dihydro-5H-pyrazolo[5,1-b][1,3]oxazine-2-carboxamide], in experiment [1], the DC50 is 50 to 500 nM and the “SMARCA2 % Degradation @ 1 μM” value was “++ (++=30-70%)”. In experiment [2], this molecule came in with a half-maximal degradation concentration (DC50) of less than 50 nM and an inhibition at 1 µM of 30 to 70%.
The matching figures for `Nc1nnc(-c2ccccc2O)cc1N1CCN(c2ccnc(C#CCNC(=O)c3cc4n(n3)CCOC4)n2)CC1` [Compound P-58, N-(3-(4-(4-(3-amino-6-(2-hydroxyphenyl)pyridazin-4-yl)piperazin-1-yl)pyrimidin-2-yl)prop-2-yn-1-yl)-6,7-dihydro-4H-pyrazolo[5,1-c][1,4]oxazine-2-carboxamide]: 50 to 500 nM, “++ (++=30-70%)”, 50 to 500 nM and 30 to 70%.
With `Nc1nnc(-c2ccccc2O)cc1N1CCN(c2ccnc(C#CCNC(=O)c3cc4n(n3)CCC4)n2)CC1` [Compound P-59, N-(3-(4-(4-(3-amino-6-(2-hydroxyphenyl)pyridazin-4-yl)piperazin-1-yl)pyrimidin-2-yl)prop-2-yn-1-yl)-5,6-dihydro-4H-pyrrolo[1,2-b]pyrazole-2-carboxamide], in experiment [1], the 50% degradation concentration (DC50) lay in the range of 50 to 500 nM and the “SMARCA2 % Degradation @ 1 μM” value was “++ (++=30-70%)”. Besides, the DC50 in experiment [2] is greater than 5000 nM.
As to `Nc1nnc(-c2ccccc2O)cc1N1CCN(c2ccnc(C#CCNC(=O)c3cn4ccncc4n3)n2)CC1` [Compound P-60, N-(3-(4-(4-(3-amino-6-(2-hydroxyphenyl)pyridazin-4-yl)piperazin-1-yl)pyrimidin-2-yl)prop-2-yn-1-yl)imidazo[1,2-a]pyrazinc-2-carboxamidc], in experiment [1], the DC50 fell in the range of 50 to 500 nM and the “SMARCA2 % Degradation @ 1 μM” value is given as “++ (++=30-70%)”. In experiment [2], the DC50 was 50 to 500 nM and the inhibition at 1 µM lay within 30 to 70%.
In the case of `Nc1nnc(-c2ccccc2O)cc1N1CCN(c2ccnc(C#CCNC(=O)C3COc4ccccc4O3)n2)CC1` (centres unmarked) [Compound P-61, N-(3-(4-(4-(3-amino-6-(2-hydroxyphenyl)pyridazin-4-yl)piperazin-1-yl)pyrimidin-2-yl)prop-2-yn-1-yl)-2,3-dihydrobenzo[b][1,4]dioxine-2-carboxamide], in experiment [1], the DC50 fell in the range of 50 to 500 nM and the “SMARCA2 % Degradation @ 1 μM” value is “++ (++=30-70%)”. Besides, in experiment [2], the half-maximal degradation concentration (DC50) is 50 to 500 nM and the inhibition at 1 µM lay within 30 to 70%.
On to `Cc1ncsc1C(=O)NCC#Cc1nccc(N2CCN(c3cc(-c4ccccc4O)nnc3N)CC2)n1` [Compound P-62, N-(3-(4-(4-(3-amino-6-(2-hydroxyphenyl)pyridazin-4-yl)piperazin-1-yl)pyrimidin-2-yl)prop-2-yn-1-yl)-4-methylthiazole-5-carboxamide], for which, in experiment [1], the DC50 is 50 to 500 nM and the “SMARCA2 % Degradation @ 1 μM” value is on record as “++ (++=30-70%)”. Moreover, in experiment [2], the DC50 was 50 to 500 nM and the inhibition at 1 µM was in the range of 30 to 70%.
With `Nc1nnc(-c2ccccc2O)cc1N1CCN(c2ccnc(C#CCNC(=O)c3cccc4ccoc34)n2)CC1` [Compound P-63, N-(3-(4-(4-(3-amino-6-(2-hydroxyphenyl)pyridazin-4-yl)piperazin-1-yl)pyrimidin-2-yl)prop-2-yn-1-yl)benzofuran-7-carboxamide], in experiment [1], the DC50 is 50 to 500 nM and the “SMARCA2 % Degradation @ 1 μM” value is given as “++ (++=30-70%)”. In addition, in experiment [2], the DC50 was in the range of 50 to 500 nM and the inhibition at 1 µM fell in the range of 30 to 70%.
Take `Nc1nnc(-c2ccccc2O)cc1N1CCN(c2ccnc(C#CCNC(=O)c3ccc4ccccc4n3)n2)CC1` [Compound P-64, N-(3-(4-(4-(3-amino-6-(2-hydroxyphenyl)pyridazin-4-yl)piperazin-1-yl)pyrimidin-2-yl)prop-2-yn-1-yl)quinoline-2-carboxamide]: in experiment [1], the DC50 was in the range of 50 to 500 nM and the “SMARCA2 % Degradation @ 1 μM” value was “++ (++=30-70%)”. In experiment [2], this molecule came in with a DC50 of 50 to 500 nM and an inhibition at 1 µM of 30 to 70%.
Take `Nc1nnc(-c2ccccc2O)cc1N1CCN(c2ccnc(C#CCNC(=O)c3cnn4ccccc34)n2)CC1` [Compound P-65, N-(3-(4-(4-(3-amino-6-(2-hydroxyphenyl)pyridazin-4-yl)piperazin-1-yl)pyrimidin-2-yl)prop-2-yn-1-yl)pyrazolo[1,5-a]pyridine-3-carboxamide]: in experiment [1], the DC50 was 50 to 500 nM and the “SMARCA2 % Degradation @ 1 μM” value is reported as “++ (++=30-70%)”. In experiment [2], this molecule yielded a DC50 of 50 to 500 nM and an inhibition at 1 µM of 30 to 70%.
For `Nc1nnc(-c2ccccc2O)cc1N1CCN(c2ccnc(C#CCNC(=O)c3cnc4ccccn34)n2)CC1` [Compound P-66, N-(3-(4-(4-(3-amino-6-(2-hydroxyphenyl)pyridazin-4-yl)piperazin-1-yl)pyrimidin-2-yl)prop-2-yn-1-yl)imidazo[1,2-a]pyridine-3-carboxamide], in experiment [1], the DC50 lay within 50 to 500 nM and the “SMARCA2 % Degradation @ 1 μM” value was “++ (++=30-70%)”. In experiment [2], the DC50 fell in the range of 50 to 500 nM and the inhibition at 1 µM was in the range of 30 to 70%.
Take `Cn1cnc(C(=O)NCC#Cc2nccc(N3CCN(c4cc(-c5ccccc5O)nnc4N)CC3)n2)c1` [Compound P-67, N-(3-(4-(4-(3-amino-6-(2-hydroxyphenyl)pyridazin-4-yl)piperazin-1-yl)pyrimidin-2-yl)prop-2-yn-1-yl)-1-methyl-1H-imidazole-4-carboxamide]: in experiment [1], the DC50 lay within 50 to 500 nM and the “SMARCA2 % Degradation @ 1 μM” value was “+ (+=<30%)”. For the same molecule, in experiment [2], the DC50 was 50 to 500 nM and the inhibition at 1 µM was less than 30%.
As for `CC(=O)NCC#Cc1nccc(N2CCN(c3cc(-c4ccccc4O)nnc3N)CC2)n1` [Compound P-68, N-(3-(4-(4-(3-amino-6-(2-hydroxyphenyl)pyridazin-4-yl)piperazin-1-yl)pyrimidin-2-yl)prop-2-yn-1-yl)acetamide], in experiment [1], the DC50 was 50 to 500 nM and the “SMARCA2 % Degradation @ 1 μM” value is on record as “+ (+=<30%)”. Moreover, the DC50 in experiment [2] is greater than 5000 nM.
